Measured values reported in ChEMBL document CHEMBL5104202, “Structure-Uptake Relationship Studies of Oxazolidinones in Gram-Negative ESKAPE Pathogens” (J Med Chem, 2022).

Key:
Assay type in all cases: functional, organism-based
Pseudomonas aeruginosa [1] = assay: Antibacterial activity against efflux pump lacking/recombinant OM pore producing Pseudomonas aeruginosa assessed as inhibition of bacterial growth
Acinetobacter baumannii [2] = assay: Antibacterial activity against efflux pump lacking Acinetobacter baumannii assessed as inhibition of bacterial growth
Escherichia coli [3] = assay: Antibacterial activity against wild type Escherichia coli assessed as inhibition of bacterial growth
Pseudomonas aeruginosa [4] = assay: Antibacterial activity against efflux pump lacking Pseudomonas aeruginosa assessed as inhibition of bacterial growth
Pseudomonas aeruginosa [5] = assay: Antibacterial activity against recombinant OM pore producing Pseudomonas aeruginosa assessed as inhibition of bacterial growth
Acinetobacter baumannii [6] = assay: Antibacterial activity against efflux pump lacking/recombinant OM pore producing Acinetobacter baumannii assessed as inhibition of bacterial growth
Escherichia coli [7] = assay: Antibacterial activity against efflux pump lacking/recombinant OM pore producing Escherichia coli assessed as inhibition of bacterial growth
Pseudomonas aeruginosa [8] = assay: Antibacterial activity against wild type Pseudomonas aeruginosa assessed as inhibition of bacterial growth
Acinetobacter baumannii [9] = assay: Antibacterial activity against wild type Acinetobacter baumannii assessed as inhibition of bacterial growth
Escherichia coli [10] = assay: Antibacterial activity against recombinant OM pore producing Escherichia coli assessed as inhibition of bacterial growth
Acinetobacter baumannii [11] = assay: Antibacterial activity against recombinant OM pore producing Acinetobacter baumannii assessed as inhibition of bacterial growth
Escherichia coli [12] = assay: Antibacterial activity against efflux pump lacking Escherichia coli assessed as inhibition of bacterial growth

SMILES | IC50 (Pseudomonas aeruginosa [1]) [µM] | IC50 (Acinetobacter baumannii [2]) [µM] | IC50 (Escherichia coli [3]) [µM] | IC50 (Pseudomonas aeruginosa [4]) [µM] | IC50 (Pseudomonas aeruginosa [5]) [µM] | IC50 (Acinetobacter baumannii [6]) [µM] | IC50 (Escherichia coli [7]) [µM] | IC50 (Pseudomonas aeruginosa [8]) [µM] | IC50 (Acinetobacter baumannii [9]) [µM] | IC50 (Escherichia coli [10]) [µM] | IC50 (Acinetobacter baumannii [11]) [µM] | IC50 (Escherichia coli [12]) [µM]
C[n+]1ccc2cc(-c3ccc(N4C[C@H](CO)OC4=O)cc3F)ccc2c1 | > 100 | 29.7 | 63.6 | > 100 | > 100 | 27.9 | 11.4 | > 100 | > 100 | 30 | 20.1 | 4
CCOC(=O)C(C)(C)CC#Cc1ccc(N2C[C@H](CO)OC2=O)cc1F | 30.1 | 44 | > 100 | > 100 | > 100 | 30.3 | 21.9 | > 100 | > 100 | 65.3 | 60.3 | 17.8
O=C1O[C@@H](CO)CN1c1ccc(-c2ccc(F)cc2)c(F)c1 | 2.2 | 8.8 | 89.1 | 8.8 | 89.8 | 9.7 | 2.3 | > 100 | > 100 | 22.8 | 89.8 | 4.3
O=C1O[C@@H](CO)CN1c1ccc(-c2ccccn2)c(F)c1 | 47.4 | > 100 | > 100 | 64.2 | > 100 | > 100 | 79.6 | > 100 | > 100 | > 100 | > 100 | 76.8
O=C1O[C@@H](CO)CN1c1ccc(-c2cc[n+](Cc3ccccc3)cc2)c(F)c1 | 1.1 | 23.4 | 51.6 | 4.6 | 41.7 | 13 | 15.6 | > 100 | > 100 | 23.3 | 15.6 | 15.5
O=C1O[C@@H](CO)CN1c1ccc(-c2ccc(SC(F)(F)F)cc2)c(F)c1 | 6.9 | 9.1 | 35.1 | 78.2 | > 100 | 8.1 | 4.9 | > 100 | 63.5 | 9.4 | 23.5 | 6.9
N=C(N)NCc1ccc(-c2ccc(N3C[C@H](CO)OC3=O)cc2F)cc1 | 25.7 | 67.8 | > 100 | 12 | > 100 | 32.5 | 55.7 | > 100 | > 100 | 56.1 | 65.9 | 63.8
CC[n+]1ccc(-c2ccc(N3C[C@H](CO)OC3=O)cc2F)cc1 | 42.3 | > 100 | 43.8 | 57.4 | > 100 | 38.5 | 15.9 | > 100 | > 100 | 36 | > 100 | 13.7
CCOC(=O)C1CCN(CC#Cc2ccc(N3C[C@H](CO)OC3=O)cc2F)CC1 | > 100 | > 100 | > 100 | > 100 | > 100 | > 100 | > 100 | > 100 | > 100 | > 100 | > 100 | > 100
CC(O)c1ccc(OCC#Cc2ccc(N3C[C@H](CO)OC3=O)cc2F)cc1 (some centres not stated) | 91.3 | 61.9 | 62.4 | > 100 | > 100 | 34.7 | 13.5 | > 100 | > 100 | 24.7 | > 100 | 30.2
O=C1O[C@@H](CO)CN1c1ccc(-c2cccc(S(=O)(=O)C(F)(F)F)c2)c(F)c1 | > 100 | 48.8 | > 100 | > 100 | > 100 | 38.5 | 12.5 | > 100 | > 100 | 21.2 | > 100 | 19.3
N[C@@H](Cc1cccc(-c2ccc(N3C[C@H](CO)OC3=O)cc2F)c1)C(=O)O | > 100 | > 100 | > 100 | > 100 | > 100 | > 100 | > 100 | > 100 | > 100 | > 100 | > 100 | > 100
CC(=O)OCC#Cc1ccc(N2C[C@H](CO)OC2=O)cc1F | > 100 | > 100 | > 100 | > 100 | > 100 | > 100 | 39.7 | > 100 | > 100 | 44.4 | > 100 | 72.4
Nc1cccc(C#Cc2ccc(N3C[C@H](CO)OC3=O)cc2F)n1 | > 100 | 83.9 | 59 | > 100 | > 100 | 76.7 | 20.5 | > 100 | > 100 | 19.2 | 49.8 | 34.2
CC(C)(C)OC(=O)NC(CO)CC#Cc1ccc(N2C[C@H](CO)OC2=O)cc1F (some centres not stated) | > 100 | > 100 | > 100 | > 100 | > 100 | > 100 | 67.8 | > 100 | > 100 | 97.3 | > 100 | 72.6
CC(C)(C)OC(=O)N(CC#Cc1ccc(N2C[C@H](CO)OC2=O)cc1F)CC(=O)O | > 100 | > 100 | > 100 | > 100 | > 100 | > 100 | > 100 | > 100 | > 100 | > 100 | > 100 | > 100
NC(CO)CC#Cc1ccc(N2C[C@H](CO)OC2=O)cc1F (some centres not stated) | > 100 | > 100 | > 100 | > 100 | > 100 | > 100 | > 100 | > 100 | > 100 | > 100 | > 100 | > 100
COC(=O)c1ccccc1-c1ccc(N2C[C@H](CO)OC2=O)cc1F | > 100 | > 100 | 96 | > 100 | > 100 | > 100 | 39.7 | > 100 | > 100 | 61.5 | > 100 | 64.6
O=C1O[C@@H](CO)CN1c1ccc(-c2ccc(-c3ccccn3)cc2)c(F)c1 | > 100 | 21.5 | 76.2 | > 100 | > 100 | 21.5 | 55.2 | > 100 | 35.3 | 47.2 | 35.3 | 55.6
CC(C)[n+]1ccc(-c2ccc(N3C[C@H](CO)OC3=O)cc2F)cc1 | 36.6 | 34.5 | 81.6 | 35.1 | > 100 | 22.3 | 16.6 | > 100 | 89.5 | 42.8 | 22 | 16.9
O=C(O)c1cncc(-c2ccc(N3C[C@H](CO)OC3=O)cc2F)c1 | > 100 | > 100 | > 100 | > 100 | > 100 | > 100 | 42.2 | > 100 | > 100 | > 100 | > 100 | > 100
Cn1ncc(C#Cc2ccc(N3C[C@H](CO)OC3=O)cc2F)c1C(=O)O | > 100 | 88.2 | > 100 | > 100 | > 100 | 89.5 | > 100 | > 100 | > 100 | > 100 | 61.3 | > 100
COc1ccc(-c2ccc(N3C[C@H](CO)OC3=O)cc2F)cc1 | 1.2 | 0.7 | 23.3 | 0.7 | > 100 | 0.6 | 0.3 | > 100 | > 100 | 3.4 | > 100 | 0.2
C[n+]1cccc(-c2ccc(N3C[C@H](CO)OC3=O)cc2F)c1 | > 100 | > 100 | > 100 | > 100 | > 100 | > 100 | 88.8 | > 100 | > 100 | > 100 | > 100 | 70.6
NC(=S)Nc1cccc(C#Cc2ccc(N3C[C@H](CO)OC3=O)cc2F)c1 | > 100 | > 100 | > 100 | > 100 | > 100 | > 100 | 64.5 | > 100 | > 100 | > 100 | > 100 | 85
O=C1NCCN1CC#Cc1ccc(N2C[C@H](CO)OC2=O)cc1F | > 100 | > 100 | > 100 | > 100 | > 100 | > 100 | 39 | > 100 | > 100 | > 100 | > 100 | 64.3
